One compound from paper PMC5298231, “The Malaria Parasite's Lactate Transporter PfFNT Is the Target of Antiplasmodial Compounds Identified in Whole Cell Phenotypic Screens” (PLoS Pathogens, 2017) can be followed below.

The assay concerns 3D7 P. falciparum trophozoites. The assay can be described thus: Cytosolic pH (pHcyt) measurement in BCECF-loaded saponin-isolated trophozoites.

Turning to `COc1ccc2c(c1)OC(O)(C(F)(F)C(F)(F)F)CC2=O` (centres unmarked) [MMV007839], the “Lactate-induced abrupt acidification of parasite cytosol after pre-treatment” value (2.5 μM pre-treatment, 10 mM L-lactate, 4°C) was “no such abrupt acidification”. In addition, the “Rate of cytosolic acidification after addition of lactate” value (2.5 μM, 4°C, 10 mM L-lactate, mean ± SEM, n = 3) is reported as 0.011 ± 0.004 pH unit/min. Also, under “2.5 μM, 4°C, mean ± SEM, n = 3”, the “Rate of cytosolic acidification before addition of lactate” value amounted to 0.011 ± 0.003 pH unit/min. The “Cytosolic pH restored after restoration of glucose” value (2.5 μM, glucose (22 mM) restored to glucose-deprived parasites, gradual alkalinisation after initial acidification of ~2 min) is “approximately 7.1”. Also, for the setting “glucose-containing medium, 37°C (Fig 2B,C: 1 μM)”, the “Effect on cytosolic pH in glucose-containing medium” value is “cytosolic acidification”.
